Data as given in ChEMBL document CHEMBL1201862, “PubChem BioAssay data set” (2004).
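Compound exposure: 48 hours, 5 concentrations, 96-well plates. GI50 marks 50% less growth.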 Activity calls are given as the source filed them. Cut-off read from the data, not from the text of the source: active = GI50 up to about 1.1 µM and inactive = higher.

How the values were obtained:
Assay in all cases: DTP human tumour cell line panel, 48 h
[1] = tested on: HOP-92
[2] = tested on: NCI/ADR-RES
[3] = tested on: NCI-H460
[4] = tested on: OVCAR-8
[5] = tested on: A549
[6] = tested on: HCT-15
[7] = tested on: CAKI-1
[8] = tested on: KM12
[9] = tested on: SF-539
[10] = tested on: UO-31
[11] = tested on: HCT-116
[12] = tested on: OVCAR-4
[13] = tested on: MCF7
[14] = tested on: PC-3
[15] = tested on: U-251
[16] = tested on: Hs-578T
[17] = tested on: RPMI-8226
[18] = tested on: SNB-19
[19] = tested on: K562
[20] = tested on: HCC 2998

SMILES	GI50 [1]	GI50 [2]	GI50 [3]	GI50 [4]	GI50 [5]	GI50 [6] [µM]	GI50 [7]	GI50 [8]	GI50 [9]	GI50 [10]	GI50 [11]	GI50 [12]	GI50 [13]	GI50 [14]	GI50 [15]	GI50 [16]	GI50 [17]	GI50 [18]	GI50 [19]	GI50 [20]
O=C(O)c1c(-c2nccc3ccccc23)[nH]c(-c2ccccc2)c1S(=O)(=O)O	> 100 µM (inactive)	> 100 µM (inactive)	> 100 µM (inactive)	> 100 µM (inactive)	> 100 µM (inactive)	> 100	> 100 µM (inactive)	> 100 µM (inactive)	> 100 µM (inactive)	> 100 µM (inactive)	> 100 µM (inactive)	> 100 µM (inactive)	> 100 µM (inactive)	> 100 µM (inactive)	> 100 µM (inactive)	> 100 µM (inactive)	> 100 µM (inactive)	> 100 µM (inactive)		
O=C(c1ccc(Cl)cc1)N(C(=O)N1CCC(c2ccccc2)CC1)c1ccccc1		16.6 µM (inactive)		33.8 µM (inactive)		15	54.1 µM (inactive)	11.4 µM (inactive)	65 µM (inactive)	12.1 µM (inactive)	17.5 µM (inactive)		39.4 µM (inactive)	6.4 µM (inactive)	39.5 µM (inactive)	24.2 µM (inactive)	13.7 µM (inactive)	72.1 µM (inactive)	32.1 µM (inactive)	
N#CCCN(CCN(C(=O)Nc1ccccc1)c1ccccc1)C(=O)Nc1ccccc1	> 63 µM (inactive)	28.6 µM (inactive)	> 67.5 µM (inactive)	64.3 µM (inactive)	58.2 µM (inactive)	> 81.5	> 43 µM (inactive)	48.3 µM (inactive)	> 65 µM (inactive)	31.2 µM (inactive)	54.6 µM (inactive)	> 100 µM (inactive)	> 71.1 µM (inactive)	43.3 µM (inactive)	65.6 µM (inactive)		17.6 µM (inactive)	> 57.3 µM (inactive)	29.9 µM (inactive)	> 80.7 µM (inactive)
C=CCN1CN(c2ccccc2)C2(CCN(CCCC3(c4ccc(F)cc4)OCCO3)CC2)C1=O		14.4 µM (inactive)		16.1 µM (inactive)	21.2 µM (inactive)	12.5	26.7 µM (inactive)	15.8 µM (inactive)	10.9 µM (inactive)	9.93 µM (inactive)	14.8 µM (inactive)		14.7 µM (inactive)	16.2 µM (inactive)	15.3 µM (inactive)		12.4 µM (inactive)	19.5 µM (inactive)	12.8 µM (inactive)	19.7 µM (inactive)
COc1ccc(/C(=C/n2ccnc2)C(=O)c2ccc(OC)c(OC)c2)cc1	> 100 µM (inactive)		> 100 µM (inactive)	> 100 µM (inactive)	> 100 µM (inactive)	> 100	> 100 µM (inactive)	> 100 µM (inactive)	> 100 µM (inactive)	> 100 µM (inactive)	> 100 µM (inactive)	> 100 µM (inactive)			> 100 µM (inactive)		> 100 µM (inactive)	> 100 µM (inactive)	> 100 µM (inactive)	> 100 µM (inactive)
CSc1cnc2ccccc2c1SC1CN(Cc2ccccc2)c2ccccc2C1=O (centres undefined)	> 100 µM (inactive)	> 100 µM (inactive)	> 100 µM (inactive)		> 100 µM (inactive)	> 100	> 100 µM (inactive)	> 100 µM (inactive)	> 100 µM (inactive)	> 100 µM (inactive)	> 100 µM (inactive)	> 100 µM (inactive)	> 100 µM (inactive)	> 100 µM (inactive)	> 100 µM (inactive)		> 100 µM (inactive)	> 100 µM (inactive)	> 100 µM (inactive)	> 100 µM (inactive)
O=C1N[C@H]2c3c(Cl)sc(Cl)c3[C@@H](O)[C@H]2O1		> 100 µM (inactive)	> 100 µM (inactive)	> 100 µM (inactive)	> 100 µM (inactive)	> 100	> 100 µM (inactive)	> 100 µM (inactive)	> 100 µM (inactive)	> 100 µM (inactive)	> 100 µM (inactive)		> 100 µM (inactive)	> 100 µM (inactive)	> 100 µM (inactive)		> 100 µM (inactive)	> 100 µM (inactive)	> 100 µM (inactive)	> 100 µM (inactive)
COC(=O)C(C(=O)C(=O)Nc1ccccc1C(C)=O)c1nc2ccc(Cl)cc2nc1O (centres undefined)	> 100 µM (inactive)		> 100 µM (inactive)	> 100 µM (inactive)	> 100 µM (inactive)	> 100	> 100 µM (inactive)	> 100 µM (inactive)	> 100 µM (inactive)	77.8 µM (inactive)	> 100 µM (inactive)	> 100 µM (inactive)			> 100 µM (inactive)		> 100 µM (inactive)	> 100 µM (inactive)	> 100 µM (inactive)	> 100 µM (inactive)
Cc1ccc([S+]([O-])/C=C(\NC(=O)OCc2ccccc2)C(F)(F)F)cc1 (centres undefined)	55.8 µM (inactive)	33.1 µM (inactive)	41.4 µM (inactive)	36.9 µM (inactive)	41 µM (inactive)	33.4	42 µM (inactive)	32.9 µM (inactive)	26.7 µM (inactive)	21.9 µM (inactive)	45.7 µM (inactive)	67.5 µM (inactive)	32.2 µM (inactive)	50.4 µM (inactive)	18.6 µM (inactive)			29.3 µM (inactive)	28.1 µM (inactive)	37.5 µM (inactive)
Oc1nc(-c2ccccc2)cc(-c2ccccc2O)n1	84.5 µM (inactive)		87.5 µM (inactive)	> 100 µM (inactive)	83.4 µM (inactive)	83.2	76.2 µM (inactive)	> 100 µM (inactive)	> 100 µM (inactive)	41 µM (inactive)	83.4 µM (inactive)	> 100 µM (inactive)			42.2 µM (inactive)		83.9 µM (inactive)	58.2 µM (inactive)	> 100 µM (inactive)	> 100 µM (inactive)
CN(/N=C\c1ccc2ccccc2c1)C1=NCCN1	0.0817 µM (active)	20.6 µM (inactive)	12.5 µM (inactive)	30.3 µM (inactive)	15.8 µM (inactive)	25.2	10.3 µM (inactive)	15.7 µM (inactive)	17.7 µM (inactive)	13.2 µM (inactive)	15.8 µM (inactive)	20.8 µM (inactive)	16.3 µM (inactive)		18 µM (inactive)	20.4 µM (inactive)	17.3 µM (inactive)		18.1 µM (inactive)	16.2 µM (inactive)
COC(=O)CCN(CCC(=O)OC)C1CC1	28.3 µM (inactive)	> 100 µM (inactive)	> 100 µM (inactive)	> 100 µM (inactive)	> 100 µM (inactive)	> 100		> 100 µM (inactive)	> 100 µM (inactive)	76.7 µM (inactive)	> 100 µM (inactive)	> 100 µM (inactive)	> 100 µM (inactive)		> 100 µM (inactive)	> 100 µM (inactive)	> 100 µM (inactive)	> 100 µM (inactive)	> 100 µM (inactive)	> 100 µM (inactive)
c1ccc2c(c1)[n-]n1c3ccc4nonc4c3n[n+]21	> 100 µM (inactive)	> 100 µM (inactive)	93.3 µM (inactive)	> 100 µM (inactive)	> 100 µM (inactive)	> 100	> 100 µM (inactive)	> 100 µM (inactive)	> 100 µM (inactive)	> 100 µM (inactive)	> 100 µM (inactive)	> 100 µM (inactive)	60.5 µM (inactive)	> 100 µM (inactive)	> 100 µM (inactive)		> 100 µM (inactive)	> 100 µM (inactive)	> 100 µM (inactive)	> 100 µM (inactive)
O=C(NNC(c1ccccc1)C(F)(F)F)c1ccncc1 (centres undefined)	> 100 µM (inactive)	> 100 µM (inactive)	> 100 µM (inactive)	> 100 µM (inactive)	> 100 µM (inactive)	> 100	> 100 µM (inactive)	> 100 µM (inactive)	> 100 µM (inactive)		> 100 µM (inactive)	> 100 µM (inactive)	> 100 µM (inactive)	> 100 µM (inactive)	> 100 µM (inactive)		> 100 µM (inactive)	> 100 µM (inactive)	> 100 µM (inactive)	> 100 µM (inactive)
O=C(CCCNC(=O)OCc1ccccc1)OCc1ccc2c(c1)C(=O)c1ccccc1C2=O	36.6 µM (inactive)		> 100 µM (inactive)	47.9 µM (inactive)	> 100 µM (inactive)	> 100	> 56.8 µM (inactive)	> 100 µM (inactive)	23.1 µM (inactive)	> 100 µM (inactive)	> 100 µM (inactive)	> 100 µM (inactive)			86.1 µM (inactive)		> 100 µM (inactive)	51.4 µM (inactive)	> 100 µM (inactive)	> 100 µM (inactive)
O=C(CC(C(=O)c1cccs1)c1ccsc1)c1ccco1 (centres undefined)	> 100 µM (inactive)	20.4 µM (inactive)	24.2 µM (inactive)	32.3 µM (inactive)	21.6 µM (inactive)	21.5	29.1 µM (inactive)	22.7 µM (inactive)	27.5 µM (inactive)	21.2 µM (inactive)	21.2 µM (inactive)		21.1 µM (inactive)		21.4 µM (inactive)	19.1 µM (inactive)	73.5 µM (inactive)			36 µM (inactive)
